Test results: the NIST ThermoML archive (doi:10.1021/acs.jced.9b00171)

Experiments:
[1] = wn = mass fraction of the nth substance listed; settings: 101.3 kPa, Liquid, Oscillating disk viscometry
[2] = refractive index (Na D-line) (dimensionless); wn = mass fraction of the nth substance listed; settings: 101.3 kPa, Liquid, Standard Abbe refractometry

CNCCO [2-(methylamino)ethanol] + O
Settings	refractive index, [2]	viscosity, [1] [mPa·s]
293.15 K, w1 = 0.05	1.3421	1.31
293.15 K, w1 = 0.1	1.3452	1.68
293.15 K, w1 = 0.15	1.3484	2.38
293.15 K, w1 = 0.2	1.3522	2.66
293.15 K, w1 = 0.25	1.3568	3.4
293.15 K, w1 = 0.3	1.3624	4.22
298.15 K, w1 = 0.05	1.3414	1.1
298.15 K, w1 = 0.1	1.3444	1.42
298.15 K, w1 = 0.15	1.3476	2.02
298.15 K, w1 = 0.2	1.3513	2.17
298.15 K, w1 = 0.25	1.3558	2.74
298.15 K, w1 = 0.3	1.3614	3.52
303.15 K, w1 = 0.05	1.3405	0.99
303.15 K, w1 = 0.1	1.3435	1.22
303.15 K, w1 = 0.15	1.3467	1.74
303.15 K, w1 = 0.2	1.3502	1.83
303.15 K, w1 = 0.25	1.3547	2.32
303.15 K, w1 = 0.3	1.3602	2.96
308.15 K, w1 = 0.05	1.3396	0.88
308.15 K, w1 = 0.1	1.3426	1.05
308.15 K, w1 = 0.15	1.3456	1.42
308.15 K, w1 = 0.2	1.349	1.52
308.15 K, w1 = 0.25	1.3534	1.96
308.15 K, w1 = 0.3	1.3588	2.52
313.15 K, w1 = 0.05	1.3386	0.79
313.15 K, w1 = 0.1	1.3416	0.94
313.15 K, w1 = 0.15	1.3445	1.22
313.15 K, w1 = 0.2	1.3478	1.32
313.15 K, w1 = 0.25	1.352	1.71
313.15 K, w1 = 0.3	1.3573	2.2
318.15 K, w1 = 0.05	1.3375	0.72
318.15 K, w1 = 0.1	1.3405	0.84
318.15 K, w1 = 0.15	1.3434	1.04
318.15 K, w1 = 0.2	1.3465	1.19
318.15 K, w1 = 0.25	1.3505	1.49
318.15 K, w1 = 0.3	1.3558	1.92
323.15 K, w1 = 0.05	1.3364	0.65
323.15 K, w1 = 0.1	1.3394	0.75
323.15 K, w1 = 0.15	1.3421	0.93
323.15 K, w1 = 0.2	1.3451	1.06
323.15 K, w1 = 0.25	1.349	1.29
323.15 K, w1 = 0.3	1.3542	1.65
328.15 K, w1 = 0.05	1.3352	0.58
328.15 K, w1 = 0.1	1.3381	0.67
328.15 K, w1 = 0.15	1.3406	0.83
328.15 K, w1 = 0.2	1.3436	0.94
328.15 K, w1 = 0.25	1.3474	1.12
328.15 K, w1 = 0.3	1.3524	1.41
333.15 K, w1 = 0.05	1.334	0.52
333.15 K, w1 = 0.1	1.3368	0.6
333.15 K, w1 = 0.15	1.3391	0.74
333.15 K, w1 = 0.2	1.342	0.83
333.15 K, w1 = 0.25	1.3456	0.99
333.15 K, w1 = 0.3	1.3504	1.2
